As usually defined, the IC50 is the concentration at which inhibition is half-maximal.

We go through 29 compounds from patent US9056874B2, “Complement pathway modulators and uses thereof” (NOVARTIS AG, priority 2012, dated 2015).

This assay has as its target factor B (Homo sapiens, UniProt P00751). The assay is described as follows: factor B inhibition assay of Biological Example 1. Type of assay: biochemical. Also noted: CVF-Bb complex prepared from purified cobra venom factor (1 μM), recombinant human complement factor B; made in house; host or cells: drosophila cells (factor B); E. coli (factor D used to form the complex). The following applies: IC50 (nM), assay of Biological Example 1 (Table 1).

Sequence of factor B (P00751 260-764 limits assumed): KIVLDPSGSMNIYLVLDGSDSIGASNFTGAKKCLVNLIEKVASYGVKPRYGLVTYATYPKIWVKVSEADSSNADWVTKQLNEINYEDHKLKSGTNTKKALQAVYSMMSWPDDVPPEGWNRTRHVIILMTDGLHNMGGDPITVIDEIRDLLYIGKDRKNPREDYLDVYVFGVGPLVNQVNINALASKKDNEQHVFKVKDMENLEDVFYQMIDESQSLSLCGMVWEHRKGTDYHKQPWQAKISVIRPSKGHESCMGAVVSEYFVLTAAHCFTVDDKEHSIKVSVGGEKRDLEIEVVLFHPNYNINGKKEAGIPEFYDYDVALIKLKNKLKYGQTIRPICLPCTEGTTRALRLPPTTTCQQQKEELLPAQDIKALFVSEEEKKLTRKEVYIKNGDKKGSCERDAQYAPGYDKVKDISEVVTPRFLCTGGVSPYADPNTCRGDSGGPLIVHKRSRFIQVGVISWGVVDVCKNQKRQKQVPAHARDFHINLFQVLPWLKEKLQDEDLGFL
Sequence of factor B (Q91132 23-649 partner limits assumed): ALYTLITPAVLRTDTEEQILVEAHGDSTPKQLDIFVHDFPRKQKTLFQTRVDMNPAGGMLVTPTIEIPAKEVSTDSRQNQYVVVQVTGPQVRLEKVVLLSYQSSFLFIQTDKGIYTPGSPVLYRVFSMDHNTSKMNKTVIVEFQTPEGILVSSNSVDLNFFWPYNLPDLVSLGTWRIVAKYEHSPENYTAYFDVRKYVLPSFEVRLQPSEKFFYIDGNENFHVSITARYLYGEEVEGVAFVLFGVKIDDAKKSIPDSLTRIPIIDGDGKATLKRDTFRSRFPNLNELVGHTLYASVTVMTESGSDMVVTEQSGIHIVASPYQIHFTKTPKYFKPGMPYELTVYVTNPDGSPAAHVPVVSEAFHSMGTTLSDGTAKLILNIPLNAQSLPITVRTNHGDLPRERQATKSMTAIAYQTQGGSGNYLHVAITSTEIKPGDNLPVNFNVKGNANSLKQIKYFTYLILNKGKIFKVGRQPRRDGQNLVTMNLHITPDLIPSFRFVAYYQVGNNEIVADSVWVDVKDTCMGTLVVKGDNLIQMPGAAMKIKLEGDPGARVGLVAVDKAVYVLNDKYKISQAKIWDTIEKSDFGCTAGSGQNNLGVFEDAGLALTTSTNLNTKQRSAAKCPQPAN
Sequence of factor B (Q91132 733-984 partner limits assumed): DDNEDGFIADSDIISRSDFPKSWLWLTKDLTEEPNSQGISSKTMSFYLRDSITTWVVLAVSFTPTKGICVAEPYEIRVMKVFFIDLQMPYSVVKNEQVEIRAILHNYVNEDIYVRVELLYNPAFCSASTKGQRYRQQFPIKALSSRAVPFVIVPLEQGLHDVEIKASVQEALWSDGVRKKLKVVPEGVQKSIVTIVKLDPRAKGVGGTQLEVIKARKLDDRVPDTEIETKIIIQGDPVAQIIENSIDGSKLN
Sequence of factor B (Q91132 1264-1642 partner limits assumed): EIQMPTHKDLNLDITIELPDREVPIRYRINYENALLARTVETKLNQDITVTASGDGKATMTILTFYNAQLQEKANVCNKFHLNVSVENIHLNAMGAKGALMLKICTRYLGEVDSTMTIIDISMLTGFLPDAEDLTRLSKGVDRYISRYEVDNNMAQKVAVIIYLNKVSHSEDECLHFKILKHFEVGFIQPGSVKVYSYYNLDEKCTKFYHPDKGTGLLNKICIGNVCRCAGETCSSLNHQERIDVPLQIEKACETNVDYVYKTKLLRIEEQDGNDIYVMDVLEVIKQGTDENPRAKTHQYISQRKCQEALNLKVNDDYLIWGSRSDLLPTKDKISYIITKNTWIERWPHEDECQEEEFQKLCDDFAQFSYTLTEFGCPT

In the case of `Cc1cc(C)c2[nH]ccc2c1C(C)(O)c1nc2cc(C#N)ccc2[nH]1` (single isomer, unassigned; (+)) [76-B b) (+), (+)-2-(1-(5,7-Dimethyl-1H-indol-4-yl)-1-hydroxyethyl)-1H-benzo[d]imidazole-5-carbonitrile], the IC50 worked out at 290 nM.
With `CCc1cc(C)c2[nH]ccc2c1C(C)(O)c1nc2cc(C#N)ccc2[nH]1` (single isomer, unassigned; (+)) [77-C b) (+), (+)-2-(1-(5-ethyl-7-methyl-1H-indol-4-yl)-1-hydroxyethyl)-1H-benzo[d]imidazole-5-carbonitrile], the 50% inhibitory concentration (IC50) was determined as 40 nM.
For `Cc1cc(C(C)C)c(C(C)(O)c2nc3cc(C#N)ccc3[nH]2)c2cc[nH]c12` (single isomer, unassigned; (+)) [79-B b) (+), (+)-2-(1-hydroxy-1-(5-isopropyl-7-methyl-1H-indol-4-yl)ethyl)-1H-benzo[d]imidazole-5-carbonitrile], the half-maximal inhibitory concentration (IC50) was 1070 nM.
As for `Cc1cc(C2CC2)c(C(C)(O)c2nc3cc(C#N)ccc3[nH]2)c2cc[nH]c12` (single isomer, unassigned; (+)) [79-C b) (+), (+)-2-(1-(5-cyclopropyl-7-methyl-1H-indol-4-yl)-1-hydroxyethyl)-1H-benzo[d]imidazole-5-carbonitrile], the figure is 8 nM; as for `Cc1cc(CC(C)C)c(C(C)(O)c2nc3cc(C#N)ccc3[nH]2)c2cc[nH]c12` (single isomer, unassigned; (+)) [79-D b) (+), (+)-2-(1-hydroxy-1-(5-isobutyl-7-methyl-1H-indol-4-yl)ethyl)-1H-benzo[d]imidazole-5-carbonitrile], 2240 nM; as for `Cc1cc(Cl)c(C(C)(O)c2nc3cc(C#N)ccc3[nH]2)c2cc[nH]c12` (single isomer, unassigned; (+)) [79-E b) (+), (+)-2-(1-(5-chloro-7-methyl-1H-indol-4-yl)-1-hydroxyethyl)-1H-benzo[d]imidazole-5-carbonitrile], 1120 nM.
On to `CCc1cc(C)c2[nH]ccc2c1C(O)(c1nc2cc(C#N)ccc2[nH]1)C(F)(F)F` (single isomer, unassigned; (+)) [80-C b) (+), (+)-2-(1-(5-ethyl-7-methyl-1H-indol-4-yl)-2,2,2-trifluoro-1-hydroxyethyl)-1H-benzo[d]imidazole-5-carbonitrile], for which the IC50 came out at 380 nM.
The value for `Cc1cc(C)c2[nH]ccc2c1C(O)(c1nc2cc(C#N)ccc2[nH]1)C(F)(F)F` (single isomer, unassigned; (+)) [80-D b) (+), (+)-2-(1-(5,7-dimethyl-1H-indol-4-yl)-2,2,2-trifluoro-1-hydroxyethyl)-1H-benzo[d]imidazole-5-carbonitrile] was 4330 nM; that for `Cc1cc(C2CC2)c(C(O)(c2nc3cc(C#N)ccc3[nH]2)C(F)(F)F)c2cc[nH]c12` (single isomer, unassigned; (+)) [80-E b) (+), (+)-2-(1-(5-cyclopropyl-7-methyl-1H-indol-4-yl)-2,2,2-trifluoro-1-hydroxyethyl)-1H-benzo[d]imidazole-5-carbonitrile] was 180 nM; that for `Cc1cc(C(C)C)c(C(O)(c2nc3cc(C#N)ccc3[nH]2)C(F)(F)F)c2cc[nH]c12` (single isomer, unassigned; (+)) [80-F b) (+), (+)-2-(2,2,2-trifluoro-1-hydroxy-1-(5-isopropyl-7-methyl-1H-indol-4-yl)ethyl)-1H-benzo[d]imidazole-5-carbonitrile] was 690 nM.
As for `COC(C)(c1nc2cc(C#N)ccc2[nH]1)c1c(C)cc(C)c2[nH]ccc12` (single isomer, unassigned; (+)) [84-B b) (+), (+)-2-(1-(5,7-dimethyl-1H-indol-4-yl)-1-methoxyethyl)-1H-benzo[d]imidazole-5-carbonitrile], the figure is 710 nM.
Consider `CCc1cc(C)c2[nH]ccc2c1C(C)(OC)c1nc2cc(C#N)ccc2[nH]1` (single isomer, unassigned; (+)) [84-C b) (+), (+)-2-(1-(5-ethyl-7-methyl-1H-indol-4-yl)-1-methoxyethyl)-1H-benzo[d]imidazole-5-carbonitrile], for which the IC50 came out at 150 nM.
As to `CCc1cc(C)c2[nH]ccc2c1C(OC)(c1nc2cc(C#N)ccc2[nH]1)C(F)(F)F` (single isomer, unassigned; (+)) [84-D b) (+), (+)-2-(1-(5-ethyl-7-methyl-1H-indol-4-yl)-2,2,2-trifluoro-1-methoxyethyl)-1H-benzo[d]imidazole-5-carbonitrile], the IC50 is 460 nM.
As to `COC(C)(c1nc2cc(C#N)ccc2[nH]1)c1c(CC(C)C)cc(C)c2[nH]ccc12` (single isomer, unassigned; (+)) [84-E b) (+), (+)-2-(1-(5-isobutyl-7-methyl-1H-indol-4-yl)-1-methoxyethyl)-1H-benzo[d]imidazole-5-carbonitrile], the IC50 amounted to 1200 nM.
With `Cc1cc(C)c2[nH]ccc2c1C(N)c1nc2ccc(C#N)cc2[nH]1` (single isomer, unassigned; (+)) [95-B b) (+), (+)-2-(amino(5,7-dimethyl-1H-indol-4-yl)methyl)benzo[d]imidazole-5-carbonitrile], the IC50 is 2140 nM.
Regarding `CCc1cc(C)c2[nH]ccc2c1C(N)c1nc2cc(C#N)ccc2[nH]1` (single isomer, unassigned; (+)) [96-C b) (+), (+)-2-(amino(5-ethyl-7-methyl-1H-indol-4-yl)methyl)-1H-benzo[d]imidazole-5-carbonitrile], the half-inhibitory concentration (IC50) stood at 2210 nM.
As to `CCc1cc(C)c2[nH]ccc2c1C(C)(N)c1nc2cc(C#N)ccc2[nH]1` (single isomer, unassigned; (+)) [102-C b) (+), (+)-2-(1-amino-1-(5-ethyl-7-methyl-1H-indol-4-yl)ethyl)-1H-benzo[d]imidazole-5-carbonitrile], the concentration for half-maximal inhibition (IC50) was 50 nM.
In the case of `Cc1cc(C2CC2)c(C(C)(N)c2nc3cc(C#N)ccc3[nH]2)c2cc[nH]c12` (single isomer, unassigned; (+)) [102-D b) (+), (+)-2-(1-amino-1-(5-cyclopropyl-7-methyl-1H-indol-4-yl)ethyl)-1H-benzo[d]imidazole-5-carbonitrile], the IC50 is 6 nM.
As to `Cc1cc(Br)c(C(N)(c2nc3cc(C#N)ccc3[nH]2)C(F)(F)F)c2cc[nH]c12` (single isomer, unassigned; (+)) [105-B b) (+), (+)-2-(1-amino-1-(5-bromo-7-methyl-1H-indol-4-yl)-2,2,2-trifluoroethyl)-1H-benzo[d]imidazole-5-carbonitrile], the IC50 came out at 90 nM.
`CNC(c1nc2cc(C#N)ccc2[nH]1)(c1c(Br)cc(C)c2[nH]ccc12)C(F)(F)F` (single isomer, unassigned; (+)) [106 b) (+), (+)-2-(1-(5-bromo-7-methyl-1H-indol-4-yl)-2,2,2-trifluoro-1-(methylamino)ethyl)-1H-benzo[d]imidazole-5-carbonitrile]: the half-inhibitory concentration (IC50) came to 150 nM.
With `CCc1cc(C)c2[nH]ccc2c1C(NC)(c1nc2cc(C#N)ccc2[nH]1)C(F)(F)F` (single isomer, unassigned; (+)) [107-B b) (+), (+)-2-(1-(5-ethyl-7-methyl-1H-indol-4-yl)-2,2,2-trifluoro-1-(methylamino)ethyl)-1H-benzo[d]imidazole-5-carbonitrile], the IC50 came to 140 nM.
`CCc1cc(C)c2[nH]ccc2c1C(N)(c1nc2cc(C#N)ccc2[nH]1)C(F)(F)F` (single isomer, unassigned; (+)) [107-C b) (+)]: the IC50 amounted to 400 nM.
As to `Cc1cc(C2CC2)c(C(N)(c2nc3cc(C#N)ccc3[nH]2)C(F)(F)F)c2cc[nH]c12` (single isomer, unassigned; (+)) [107-D b) (+), (+)-2-(1-amino-1-(5-cyclopropyl-7-methyl-1H-indol-4-yl)-2,2,2-trifluoroethyl)-1H-benzo[d]imidazole-5-carbonitrile], the IC50 came out at 50 nM.
On to `CNC(c1nc2cc(C#N)ccc2[nH]1)(c1c(C2CC2)cc(C)c2[nH]ccc12)C(F)(F)F` (single isomer, unassigned; (+)) [107-E b) (+), (+)-2-(1-(5-cyclopropyl-7-methyl-1H-indol-4-yl)-2,2,2-trifluoro-1-(methylamino)ethyl)-1H-benzo[d]imidazole-5-carbonitrile], for which the IC50 turned out to be 240 nM.
`COc1cc(C)c2c(c1C(C)(OC)c1nc3cc(C#N)ccc3[nH]1)CCN2` (single isomer, unassigned; (+)) [124 b) (+), (+)-2-(1-methoxy-1-(5-methoxy-7-methylindolin-4-yl)ethyl)-1H-benzo[d]imidazole-5-carbonitrile]: the half-maximal inhibitory concentration (IC50) is 490 nM.
`COc1cc(C)c2[nH]ccc2c1C(O)c1nc2cc(C#N)ccc2o1` (single isomer, unassigned; (+)) [125-B b) (+), (+)-2-(hydroxy(5-methoxy-7-methyl-1H-indol-4-yl)methyl)benzo[d]oxazole-5-carbonitrile]: the IC50 turned out to be 180 nM.
`COc1cc(C)c2[nH]ccc2c1C(O)(c1nc2cc(C#N)ccc2o1)C(F)(F)F` (single isomer, unassigned; (+)) [128-B b) (+), (+)-2-(2,2,2-trifluoro-1-hydroxy-1-(5-methoxy-7-methyl-1H-indol-4-yl)ethyl)benzo[d]oxazole-5-carbonitrile]: the IC50 worked out at 1990 nM.
Take `COc1cc(C)c2[nH]ccc2c1C(C)(N)c1nc2cc(C#N)ccc2o1` (single isomer, unassigned; (+)) [131-B b) (+), (+)-2-(1-amino-1-(5-methoxy-7-methyl-1H-indol-4-yl)ethyl)benzo[d]oxazole-5-carbonitrile]: the concentration for half-maximal inhibition (IC50) worked out at 140 nM.
Take `CCc1cc(C)c2[nH]cc(C(F)(F)F)c2c1C(C)(O)c1nc2cc(C#N)ccc2[nH]1` (single isomer, unassigned; (+)) [Example 88, (+)-2-(1-(5-Ethyl-7-methyl-3-(trifluoromethyl)-1H-indol-4-yl)-1-hydroxyethyl)-1H-benzo[d]imidazole-5-carbonitrile]: the half-inhibitory concentration (IC50) amounted to 57900 nM.
